Measurements published in patent US20060257448A1, “Resorbable polymer composition, implant and method of making implant” (The University of Zurich, priority 2005, published 2006).

System: MC3T3-E1 cells
Test: Alkaline phosphatase activity (maturation) of MC3T3-E1 preosteoblastic cells
Format: cell-based
Conditions: increasing amounts of solvent (triacetin 0 to 6 mM); determined after 6 days; FIG. 2
Experimental: To compare the effect of various plasticizer regarding their osteogenetic effect to that of triacetin, MC3T3-E1 cells were grown in an alpha-modified Minimum Essential Medium (Life Technologies, Inc., Grand Island, N.Y.) containing 10% fetal calf serum (Life Technologies, Inc.), 50 μg/ml gentamycin, and 50 μg/ml ascorbic acid. To examine the action of triacetin on this cell line, 1×10^5 cells per well were plated in 6-well plates and triacetin subsequently added. Medium exchange was performed after 3 days and alkaline phosphatase (ALP) was determined according to Lowry, O. et al. [J. Biol. Chem. 207 (1954) 19-37]: p-nitrophenol liberated was converted to p-nitrophenylate by adding 400 μl of 1 M NaOH, which was quantitated by measuring the absorbance at 410 nm (epsilon=17500/mol×cm). Alkaline phosphatase activity was normalized to total protein and expressed as nmol nitrophenylate generated per min per mg protein.
MC3T3-E1 cells were treated with increasing amounts of different solvents and the effect on the maturation of MC3T3-E1 cells determined after 6 days by alkaline phosphatase activity.

| Compound | Maturation of MC3T3-E1 cells determined by alkaline phosphatase activity |
| --- | --- |
| CN(C)C=O [N,N-dimethylformamide] | no positive effect |
| C[S+](C)[O-] [dimethylsulfoxide] | no positive effect |
| CCO [ethanol] | no positive effect |
| CO [methanol] | no positive effect |
| CC(=O)OCC(COC(C)=O)OC(C)=O [triacetin, 1,2,3-Triacetoxypropane] | increases in a concentration dependent manner |
